Experimental data: patent US12516027B2, “Lappaconitine derivative and use thereof” (priority 2020, dated 2026)

Legend:
[1] = tested on: ovariectomized (OVX) mice; test: Animal model of osteoporosis, ovariectomized (OVX) mice; format: in vivo
From the text: An ability of QG3030 to treat osteoporosis was confirmed in an animal model of ovariectomized (OVX) mice commonly used as an animal model of osteoporosis.
As the positive controls, parathyroid hormone (PTH)-based Forteo (Eli Lilly) used as an osteoporosis therapeutic agent through an osteogenesis-promoting mechanism, and alendronate-based Fosamax (Merck) serving as a bone resorption inhibitor were subcutaneously administered. As the negative control, water (H2O) was orally administered, and QG3030 was orally administered at a concentration of 5 or 30 mg/kg (FIG. 9A). After the drug was administered daily for 10 weeks, the bone mineral density (BMD) was measured.
In Table 2, BMD represents bone mineral density, TV represents total volume, BV represents bone volume, Tb.Th represents trabecular thickness, and Tb.N represents trabecular number.

ERK [2] = test: Phosphorylated ERK in MSCs with QG3030 and ERK inhibitor PD98059; format: cell-based, human
Experimental: (§1) ERK may induce the phosphorylation of RUNX2 to increase transcriptional activity and may be involved in stability to increase an amount of RUNX2 protein (Greenblatt et al., MB, Annu Rev Cell Dev Biol. 2013). Therefore, an increase in ERK phosphorylation by QG3030 may induce RUNX2 expression so that QG3030 can be involved in the differentiation of MSCs into osteoblasts. To verify this, an expression level of RUNX2 was determined after MSCs were treated with a combination of QG3030 (0.1 μM) and the ERK inhibitor PD98059 (50 μM).

RUNX2 [3] = test: RUNX2 expression in MSCs with QG3030 and ERK inhibitor PD98059; format: cell-based, human; settings: same at 24 hours
Experimental: as §1

osteocalcin = test: Change in expression of osteocalcin in MSCs (antibody staining, fluorescence microscope); format: cell-based, human; settings: 0.001 μM, within 7 days
Experimental: Osteocalcin is expressed only in osteoblasts (Lee et al., Cell 2007), and is used as a biomarker useful for osteogenesis (Bharadwaj et al., Osteoporosis International., 2009).
An experiment was performed in the same manner as described in Experimental Example 1-2, and MSCs were then stained with an osteocalcin antibody, and observed using a fluorescence microscope.

BMP-2 = test: Change in expression of BMP-2 in MSCs (antibody staining, fluorescence microscope); format: cell-based, human; settings: 0.001 μM, once a day for 7 and 14 days; increased with increasing concentration
From the text: (§2) Runt-related transcription factor 2 (RUNX2; core-binding factor alpha, Cbfa1) is the most important transcriptional regulatory factor for osteogenesis, and is known to be involved in osteoblast differentiation, matrix generation, and mineralization during osteogenesis (Bruderer M, et al., Eur Cell Mater. 2014). Also, RUNX2 itself may be regulated by a bone morphogenetic protein (BMP), which is a type of cytokine (Sun J, et al., Mol Med Rep. 2015). Accordingly, it was confirmed whether QG3030 promotes the expression of osteogenesis-related specific factors to induce osteogenesis.
(§3) MSCs were seeded in a 24-well plate at a concentration of 3×10^4 cells/well, and cultured for 24 hours. From the next day, the MSCs were treated with different concentrations (0.001 μM, 0.01 μM, and 0.1 μM) of QG3030 once a day for 7 days and 14 days. After the experiment was completed, the MSCs were stained with RUNX2 and BMP-2 antibodies, and observed using a fluorescence microscope.

ERK [4] = test: Level of phosphorylated ERK (pERK) in MSCs over time; format: cell-based, human
Experimental: Accordingly, the level of the phosphorylated ERK according to time elapsed after MSCs were treated with QG3030 was determined.
Also, to determine whether QG3030 induces ERK phosphorylation for a long period, MSCs were treated with various concentrations (0.001, 0.01, and 0.1 μM) of QG3030, and the level of phosphorylated ERK (pERK) was checked after 7 days and 14 days.

MSCs = test: Osteoblast differentiation of MSCs with kinase inhibitor combination (Alizarin Red); format: cell-based, human; settings: QG3030 1 μM + kinase inhibitor 1 μM, 3 weeks, compared to QG3030-alone group
Experimental: To further study the mechanism by which QG3030 differentiates MSCs into osteoblasts, an experiment was performed using a kinase inhibitor.
After MSCs were cultured, the MSCs were simultaneously treated with a kinase inhibitor (1 μM) and QG3030 (1 μM). The next day, the medium was exchanged, and the MSCs were simultaneously treated again with the kinase inhibitor and QG3030. This procedure was repeated for 3 weeks, and the MSCs were then stained with Alizarin Red.

RUNX2 [5] = test: Change in expression of RUNX2 in MSCs (antibody staining, fluorescence microscope); format: cell-based, human; settings: 0.001 μM, once a day for 7 and 14 days; increased with increasing concentration
From the text: as §2, §3

Sprague Dawley (SD) rat = test: Animal model of bone fracture, ilium bone defect; format: in vivo
Experimental: The ilium of a Sprague Dawley (SD) rat was subjected to drilling with a diameter of 2 mm to induce a bone defect, and QG3030 (6, 30, and 150 μg/10 μL) mixed with an excipient (collagen sponge, CollaCote®) was implanted into a bone defect site to evaluate an osteoanagenic effect (FIG. 11).
To statistically quantify the osteoanagenic capacity of QG3030, a degree of osteogenesis was realized with a 3-D image, and a region of interest (ROI) was set to analyze parameters such as bone volume/total volume (BV/TV; %), trabecular thickness (Tb.Th; mm), trabecular number (Tb.N; 1/mm), and trabecular separation (Tb.Sp; mm).

human MSCs = test: Osteocytic differentiation potential in MSCs (Alizarin Red and Von Kossa staining); format: cell-based; settings: 0.1 μM, cultured for 3 weeks, like OIM positive control
Experimental: Osteoblasts involved in the osteogenesis are formed by differentiating mesenchymal stem cells (MSCs) using external stimuli and transcription factors involved in various signaling pathways (Garg et al., Orthop Surg. 2017). Accordingly, an experiment was performed to check whether QG3030 was able to induce the differentiation of human MSCs into osteoblasts.
MSCs from normal humans were purchased from the American Type Culture Collection (ATCC, U.S.A), and cultured in an MSC-specific culture medium (Gibco). The cultured cells were digested with trypsin, centrifuged, and then seeded in a 24-well plate at a concentration of 3×10^4 cells/well. The next day, the MSC culture medium was exchanged with a DMEM (DMEM/10% FBS/penicillin/streptomycin) as an experimental medium, and the cells were treated with QG3030 alone (0.1 μM) or OIM (osteogenesis-inducing medium; StemPro Osteogenesis Differentiation Kit, ThermoFisher Scientific Inc.) as the positive control. Thereafter, the cell culture medium was exchanged with a fresh DMEM every day, treated with QG3030 or OIM, and then cultured for 3 weeks. After the culture was completed, the cells were stained with Alizarin Red for detection of calcium and Von Kossa for detection of mineral production.

ERK, Akt, WNK1 = test: Phosphokinase antibody array in MSCs; format: cell-based, human; settings: 1 μM, 24 hours, compared to control DMSO
Experimental: To study a mechanism by which QG3030 differentiates MSCs into osteoblasts, related signaling was investigated.
MSCs cultured in an experimental DMEM were treated with QG3030 (1 μM) or the control compound (DMSO), and cultured for 24 hours. The cells were recovered, and an experiment was then performed according to a method specified in a phosphokinase antibody array kit (R&D Systems) containing antibodies that specifically recognize phosphorylated forms of 43 kinases. Then, samples were analyzed using an ImageJ (NIH, USA) program.

[6] = OVX mice, positive control, subcutaneous, daily for 10 weeks
[7] = OVX mice, 5 mg/kg oral, daily for 10 weeks
[8] = OVX mice, 30 mg/kg oral, daily for 10 weeks
[9] = OVX mice, 5 or 30 mg/kg oral, daily for 10 weeks
[10] = implanted in collagen sponge at bone defect site, QG3030 low, medium and high, BMP2 1 ug/10 uL

CC[C@H](C)[C@H](NC(=O)[C@H](CCC(=O)O)NC(=O)[C@H](CO)NC(=O)[C@@H](NC(=O)[C@@H](N)CO)C(C)C)C(=O)N[C@@H](CCC(N)=O)C(=O)N[C@@H](CC(C)C)C(=O)N[C@@H](CCSC)C(=O)N[C@@H](Cc1cnc[nH]1)C(=O)N[C@@H](CC(N)=O)C(=O)N[C@@H](CC(C)C)C(=O)NCC(=O)N[C@@H](CCCCN)C(=O)N[C@@H](Cc1cnc[nH]1)C(=O)N[C@@H](CC(C)C)C(=O)N[C@@H](CC(N)=O)C(=O)N[C@@H](CO)C(=O)N[C@@H](CCSC)C(=O)N[C@@H](CCC(=O)O)C(=O)N[C@@H](CCCN=C(N)N)C(=O)N[C@H](C(=O)N[C@@H](CCC(=O)O)C(=O)N[C@@H](Cc1c[nH]c2ccccc12)C(=O)N[C@@H](CC(C)C)C(=O)N[C@@H](CCCN=C(N)N)C(=O)N[C@@H](CCCCN)C(=O)N[C@@H](CCCCN)C(=O)N[C@@H](CC(C)C)C(=O)N[C@@H](CCC(N)=O)C(=O)N[C@@H](CC(=O)O)C(=O)N[C@H](C(=O)N[C@@H](Cc1cnc[nH]1)C(=O)N[C@@H](CC(N)=O)C(=O)N[C@@H](Cc1ccccc1)C(=O)O)C(C)C)C(C)C [Forteo, reference compound]
BMD [1, 6]: 0.1997 g/mL | BV [1, 6]: 0.8791 mm^3 | BV/TV [1, 6]: 5.735% | TV [1, 6]: 15.43 mm^3

NCCCC(O)(P(=O)(O)O)P(=O)(O)O [Fosamax, reference compound]
BMD [1, 6]: 0.2135 g/mL | BV [1, 6]: 1.017 mm^3 | BV/TV [1, 6]: 6.521% | TV [1, 6]: 15.51 mm^3

COc1cccc(-c2cc(=O)c3ccccc3o2)c1N [PD98059, reference compound]
increase in the phosphorylation level of ERK by QG3030 (ERK [2]; combination of QG3030 0.1 μM and PD98059 50 μM): inhibited | expression of RUNX2 (RUNX2 [3]; combination of QG3030 0.1 μM and PD98059 50 μM, 12 hours): significantly decreased

CCN1C[C@]2(O)CC[C@H](OC)C34C1C(C[C@@H]32)[C@]1(O)C[C@H](OC)[C@@H]2C(=O)C(=O)[C@H]4[C@@H]21 [QG3030, (2aR,2a1S,3S,4aS,8S,11S,11bS,12S)-6-ethyl-4a,8-dihydroxy-3,11-dimethoxy-tetradecahydro-8,11a,5-(epiethane[1,1,2]triyl)cyclopenta[7,1]indeno[5,4-b]azocin-1,2-dione]
expression of osteocalcin (osteocalcin): strongly induced the expression of osteocalcin | phosphorylation level of ERK (ERK [2]; QG3030 0.1 μM alone): increased | expression of BMP-2 (BMP-2): strongly induced the expression | BMD [1, 7]: 0.2136 g/mL | BV [1, 7]: 1.107 mm^3 | BV/TV [1, 7]: 6.713% | TV [1, 7]: 16.57 mm^3 | Tb. N [1, 7]: 0.9472 1/mm | Tb. Th [1, 7]: 0.07081 mm | BMD [1, 8]: 0.2301 g/mL | BV [1, 8]: 1.156 mm^3 | BV/TV [1, 8]: 7.731% | TV [1, 8]: 14.92 mm^3 | Tb. N [1, 8]: 1.044 1/mm | Tb. Th [1, 8]: 0.07492 mm | bone mineral density compared to the negative control [1, 9]: significantly increased | effect on bone mineral density compared with Forteo [1, 9]: significantly superior to that of Forteo | expression of RUNX2 in the femurs (tissue staining) ([1]; ovariectomized mice): significantly increased | osteogenesis in the femurs (tissue staining) ([1]; ovariectomized mice): induced osteogenesis | level of phosphorylated ERK (pERK) (ERK [4]; 0.001, 0.01 and 0.1 μM, after 7 days and 14 days): significantly increased | level of phosphorylated ERK (pERK) (ERK [4]; after 24 hours after treatment): increased | level of phosphorylated ERK (pERK) compared with positive control (OIM) (ERK [4]; low concentration, 7 days, lasted until 14 days): greater than that of the positive control | level of phosphorylated ERK (pERK) (ERK [4]; within 30 minutes after treatment): significantly increased | osteoblast differentiation ability of QG3030 (Alizarin Red) in combination with inhibitor of ERK, P38 or Akt (MSCs): inhibited | expression of RUNX2 (RUNX2 [5]): strongly induced the expression | tissue staining markers (H&E, collagen, type I collagen, osteocalcin) at bone defect sites (Sprague Dawley (SD) rat; QG3030 low, medium and high concentrations, effect similar to BMP2): markers were expressed | bone quality by Tb.N and Tb.Sp (other than Tb.Th) compared to DMSO-treated group (Sprague Dawley (SD) rat; [10]): high-quality bone tissue was statistically significantly formed | bone volume/total volume (BV/TV) compared to negative control treated with DMSO (Sprague Dawley (SD) rat; [10]): increased to a similar level | quality of generated bone compared to BMP2 (Sprague Dawley (SD) rat; no statistical significance): better quality of bone compared to BMP2 | expression of RUNX2 (RUNX2 [3]; QG3030 0.1 μM alone, within 12 hours): significantly increased | calcium (Alizarin Red staining) (human MSCs): induced calcium and mineral production | mineral production (Von Kossa staining) (human MSCs): induced calcium and mineral production | phosphorylation of signaling molecules such as ERK, Akt, WNK1 (ERK, Akt, WNK1): strongly increased the phosphorylation
